Experimental data published in ChEMBL document CHEMBL1201862, “PubChem BioAssay data set” (2004).
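Results reflect a 48-hour exposure of cells in 96-well plates to compound at five concentrations. The concentration for 50% growth inhibition is given as GI50.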 Calls of active or inactive are those of the source. No stated cut-off is given here; in the data, active = GI50 up to about 1.1 µM and inactive = higher.

Assays:
Assay in all cases: NCI tumour cell line growth inhibition, 48 h
HCT-15 = tested on: HCT-15
ACHN = tested on: ACHN
A498 = tested on: A498
786-0 = tested on: 786-0
SK-MEL-5 = tested on: SK-MEL-5
TK-10 = tested on: TK-10
SN12C = tested on: SN12C
OVCAR-8 = tested on: OVCAR-8
NCI-H226 = tested on: NCI-H226
UO-31 = tested on: UO-31
MOLT-4 = tested on: MOLT-4
MCF7 = tested on: MCF7
NCI-H23 = tested on: NCI-H23
UACC-62 = tested on: UACC-62
RPMI-8226 = tested on: RPMI-8226
NCI-H460 = tested on: NCI-H460
U-251 = tested on: U-251
SR = tested on: SR
HCC 2998 = tested on: HCC 2998
MDA-MB-435 = tested on: MDA-MB-435

SMILES | GI50 (HCT-15) [µM] | GI50 (ACHN) | GI50 (A498) | GI50 (786-0) | GI50 (SK-MEL-5) | GI50 (TK-10) | GI50 (SN12C) | GI50 (OVCAR-8) | GI50 (NCI-H226) | GI50 (UO-31) | GI50 (MOLT-4) | GI50 (MCF7) | GI50 (NCI-H23) | GI50 (UACC-62) | GI50 (RPMI-8226) | GI50 (NCI-H460) | GI50 (U-251) | GI50 (SR) | GI50 (HCC 2998) | GI50 (MDA-MB-435)
CN1CCc2c(sc3nc(Nc4ccccc4)n(N)c(=O)c23)C1 | > 100 | > 100 µM (inactive) | > 100 µM (inactive) | > 100 µM (inactive) | 77.3 µM (inactive) | > 100 µM (inactive) | > 100 µM (inactive) | > 100 µM (inactive) | > 100 µM (inactive) | > 100 µM (inactive) | 65 µM (inactive) | 51.4 µM (inactive) | > 100 µM (inactive) | 38.4 µM (inactive) | 83 µM (inactive) | > 100 µM (inactive) |  |  |  | 
CCCCCC(/C=N/Nc1ccccc1)C(O)(C(F)(F)F)C(F)(F)F (stereo unspecified) | > 100 | > 100 µM (inactive) | > 100 µM (inactive) | > 100 µM (inactive) | > 100 µM (inactive) |  | > 100 µM (inactive) | > 100 µM (inactive) | > 100 µM (inactive) | > 100 µM (inactive) | 61.8 µM (inactive) |  | > 100 µM (inactive) | > 100 µM (inactive) | > 100 µM (inactive) | > 100 µM (inactive) | > 100 µM (inactive) | > 100 µM (inactive) | > 100 µM (inactive) | > 100 µM (inactive)
CC(=O)c1ccc(NC(=O)/C(CC(=O)c2sc(-c3cccnc3)nc2C)=N/NC(N)=O)cc1 | 42.3 | 22.4 µM (inactive) | 31.5 µM (inactive) | 27.9 µM (inactive) | > 100 µM (inactive) | > 10 µM (inactive) | 51.6 µM (inactive) | 56.5 µM (inactive) | 25.9 µM (inactive) | 50.4 µM (inactive) | 19.3 µM (inactive) |  | > 10 µM (inactive) | 52.2 µM (inactive) | 23.5 µM (inactive) | 27.1 µM (inactive) | 68.1 µM (inactive) | 33.1 µM (inactive) | > 10 µM (inactive) | 
Nn1c(Cc2ccc(Cl)cc2)n[nH]c1=O | > 100 | > 100 µM (inactive) | > 100 µM (inactive) | > 100 µM (inactive) | > 100 µM (inactive) | > 100 µM (inactive) | > 100 µM (inactive) | > 100 µM (inactive) | > 100 µM (inactive) | 34.3 µM (inactive) | > 100 µM (inactive) |  | > 100 µM (inactive) | > 100 µM (inactive) | > 100 µM (inactive) | > 100 µM (inactive) | > 100 µM (inactive) | > 100 µM (inactive) | > 100 µM (inactive) | > 100 µM (inactive)
